This passage reports IC50 results from US12643910B2, “Substituted pyrazolo[3,4-b]pyridines as ectonucleotide pyrophosphatase/phosphodiesterase 1 (ENPP1) modulators” (SANFORD BURNHAM PREBYS MEDICAL DISCOVERY INSTITUTE, priority 2019, dated 2026).

Structures are written as SMILES. Some results are limits rather than exact numbers.

One assay addresses T1, ENPP3 (Homo sapiens, UniProt O14638).
T1 sequence (O14638 1-875): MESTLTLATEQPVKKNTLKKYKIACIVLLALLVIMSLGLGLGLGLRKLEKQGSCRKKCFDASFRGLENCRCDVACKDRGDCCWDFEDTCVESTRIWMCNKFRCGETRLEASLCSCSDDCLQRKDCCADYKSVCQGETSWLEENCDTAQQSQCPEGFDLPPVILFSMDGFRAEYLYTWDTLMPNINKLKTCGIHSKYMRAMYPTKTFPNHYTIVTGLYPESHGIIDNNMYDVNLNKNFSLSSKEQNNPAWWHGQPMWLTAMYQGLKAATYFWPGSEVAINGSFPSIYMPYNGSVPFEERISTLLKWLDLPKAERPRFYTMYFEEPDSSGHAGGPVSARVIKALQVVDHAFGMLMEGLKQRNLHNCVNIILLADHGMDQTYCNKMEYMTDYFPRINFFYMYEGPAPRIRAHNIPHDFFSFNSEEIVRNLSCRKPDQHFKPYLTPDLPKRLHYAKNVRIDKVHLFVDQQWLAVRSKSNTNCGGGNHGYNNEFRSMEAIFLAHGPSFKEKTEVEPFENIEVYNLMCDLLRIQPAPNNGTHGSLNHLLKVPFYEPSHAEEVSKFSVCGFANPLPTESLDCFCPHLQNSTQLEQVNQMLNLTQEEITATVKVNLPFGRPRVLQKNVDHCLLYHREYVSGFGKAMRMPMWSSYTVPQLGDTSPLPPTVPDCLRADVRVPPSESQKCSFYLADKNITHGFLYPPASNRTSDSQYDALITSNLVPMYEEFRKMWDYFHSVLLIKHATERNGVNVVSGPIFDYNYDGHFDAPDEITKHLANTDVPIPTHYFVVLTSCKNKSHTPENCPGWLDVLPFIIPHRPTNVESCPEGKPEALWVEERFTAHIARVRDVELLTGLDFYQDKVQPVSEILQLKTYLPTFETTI
Kind of assay: ENPP3 Km ATP assay. The assay is classed as biochemical. To be noted: ATP at Km.

A further assay deals with T2, human ENPP1 (Homo sapiens, UniProt P22413).
T2 construct: made in house
T2 sequence (P22413 1-925): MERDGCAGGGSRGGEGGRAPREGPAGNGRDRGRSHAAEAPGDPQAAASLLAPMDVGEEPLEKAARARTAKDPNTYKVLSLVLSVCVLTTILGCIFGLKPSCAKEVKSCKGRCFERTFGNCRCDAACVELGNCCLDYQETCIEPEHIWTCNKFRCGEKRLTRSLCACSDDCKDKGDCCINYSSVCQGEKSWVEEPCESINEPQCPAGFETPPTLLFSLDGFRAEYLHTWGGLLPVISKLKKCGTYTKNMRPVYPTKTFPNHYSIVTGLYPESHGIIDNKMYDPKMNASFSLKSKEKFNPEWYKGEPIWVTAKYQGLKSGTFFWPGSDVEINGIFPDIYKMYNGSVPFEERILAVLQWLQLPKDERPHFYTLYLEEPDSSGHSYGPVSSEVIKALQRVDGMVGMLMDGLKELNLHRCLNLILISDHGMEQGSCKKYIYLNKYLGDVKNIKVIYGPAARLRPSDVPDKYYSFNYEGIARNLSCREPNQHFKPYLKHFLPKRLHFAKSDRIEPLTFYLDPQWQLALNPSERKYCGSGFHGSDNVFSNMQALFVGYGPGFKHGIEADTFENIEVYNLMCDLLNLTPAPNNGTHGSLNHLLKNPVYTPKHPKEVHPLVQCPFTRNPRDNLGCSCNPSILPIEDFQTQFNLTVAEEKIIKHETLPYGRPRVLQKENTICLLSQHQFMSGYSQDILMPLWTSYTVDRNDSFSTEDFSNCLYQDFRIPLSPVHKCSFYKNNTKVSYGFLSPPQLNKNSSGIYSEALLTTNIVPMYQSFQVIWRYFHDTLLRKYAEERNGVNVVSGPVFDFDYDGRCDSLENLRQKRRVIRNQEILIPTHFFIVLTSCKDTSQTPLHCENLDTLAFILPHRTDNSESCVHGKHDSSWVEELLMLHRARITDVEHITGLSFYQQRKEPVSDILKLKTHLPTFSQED
Kind of assay: ENPP1 assay with ATP substrate (Transcreener AMP2/GMP2 TR-FRET). The following applies: 1 hour at room temperature. The assay is classed as biochemical. In outline:
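Reaction ran 1 h at room temperature in pH 7.5 Tris with MgCl2, TCEP, Tween 20 and 1% DMSO. ATP was added as a 300 nM stock and enzyme as an 8.5 μM stock. After EDTA stop, AMP was read by TR-FRET tracer displacement. Percent inhibition used enzyme/no-enzyme controls; IC50 was fitted with a variable slope.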
(In general: TR-FRET usually uses a lanthanide donor and a delayed reading to cut background.)

As for `Cc1csc2c(N3CCC(NCCCc4ccncc4Cl)CC3)ncnc12` [Example 3.13, N-(3-(3-Chloropyridin-4-yl)propyl)-1-(7-methylthieno[3,2-d]pyrimidin-4-yl)piperidin-4-amine], the IC50 against ENPP3 is greater than 20 µM; at human ENPP1, 0.1 to 1 µM.

For `Cc1ccccc1CCC(=O)NC1CCN(c2ncnc3c(C)csc23)CC1` [Example 3.14, N-(1-(7-Methylthieno[3,2-d]pyrimidin-4-yl)piperidin-4-yl)-3-(o-tolyl)propanamide], the IC50 against ENPP3 and at human ENPP1 was greater than 20 µM each time.

Consider `Cc1cccc(CCC(=O)NC2CCN(c3ncnc4c(C)csc34)CC2)c1` [Example 3.15, N-(1-(7-Methylthieno[3,2-d]pyrimidin-4-yl)piperidin-4-yl)-3-(m-tolyl)propanamide], for which the IC50 at ENPP3 and against human ENPP1 was greater than 20 µM each time.

As to `Cc1ccccc1CCCNC1CCN(c2ncnc3c(C)csc23)CC1` [Example 3.16, 1-(7-Methylthieno[3,2-d]pyrimidin-4-yl)-N-(3-(o-tolyl)propyl)piperidin-4-amine], the figures for the IC50 on ENPP3 and against human ENPP1 were greater than 20 µM and 0.1 to 1 µM, respectively.

For the compound `Cc1cccc(CCCNC2CCN(c3ncnc4c(C)csc34)CC2)c1` [Example 3.17, 1-(7-Methylthieno[3,2-d]pyrimidin-4-yl)-N-(3-(m-tolyl)propyl)piperidin-4-amine], the results for the IC50 on ENPP3 and against human ENPP1 were 1 to 20 µM and 0.1 to 1 µM, respectively.

`Cc1csc2c(N3CCC(NC(=O)CCc4cccc(Cl)c4)CC3)ncnc12` [Example 3.18, 3-(3-Chlorophenyl)-N-(1-(7-methylthieno[3,2-d]pyrimidin-4-Y)piperidin-4-yl)propanamide]: the IC50 against ENPP3 and at human ENPP1 was greater than 20 µM each time.

For `Cc1csc2c(N3CCC(NCCCc4cccc(Cl)c4)CC3)ncnc12` [Example 3.19, N-(3-(3-Chlorophenyl)propyl)-1-(7-methylthieno[3,2-d]pyrimidin-4-yl)piperidin-4-amine], the figures for the IC50 against ENPP3 and against human ENPP1 were greater than 20 µM and 0.1 to 1 µM, respectively.

In the case of `Cc1csc2c(N3CCC(NC(=O)CCc4ccc(F)cc4)CC3)ncnc12` [Example 3.20, 3-(4-Fluorophenyl)-N-(1-(7-methylthieno[3,2-d]pyrimidin-4-yl)piperidin-4-yl)propanamide], the IC50 at ENPP3 and at human ENPP1 was greater than 20 µM in each case.

On to `Cc1csc2c(N3CCC(NC(=O)COc4ccc(F)cc4)CC3)ncnc12` [Example 3.22, 2-(4-Fluorophenoxy)-N-(1-(7-methylthieno[3,2-d]pyrimidin-4-yl)piperidin-4-yl)acetamide], for which the IC50 against ENPP3 was greater than 20 µM; at human ENPP1, 1 to 20 µM.

As for `Cc1csc2c(N3CCC(NCCOc4ccc(F)cc4)CC3)ncnc12` [Example 3.23, N-(2-(4-Fluorophenoxy)ethyl)-1-(7-methylthieno[3,2-d]pyrimidin-4-yl)piperidin-4-amine], the IC50 against ENPP3 and against human ENPP1 was greater than 20 µM each time.

Regarding `Cc1csc2c(N3CCC(Nc4ccncc4)CC3)ncnc12` [Example 3.24, N-(1-(7-Methylthieno[3,2-d]pyrimidin-4-yl)piperidin-4-yl)pyridin-4-amine], the values for the IC50 on ENPP3 and against human ENPP1 were greater than 20 µM and 1 to 20 µM, respectively.

Take `Cc1csc2c(N3CCC(NCCc4ccncc4)CC3)ncnc12` [Example 3.25, 1-(7-Methylthieno[3,2-d]pyrimidin-4-yl)-N-(2-(pyridin-4-yl)ethyl)piperidin-4-amine]: the values for the IC50 against ENPP3 and on human ENPP1 were greater than 20 µM and 0.1 to 1 µM, respectively.

As to `Cc1csc2c(N3CCC(NCCCc4cccnc4)CC3)ncnc12` [Example 3.26, 1-(7-Methylthieno[3,2-d]pyrimidin-4-yl)-N-(3-(pyridin-3-yl)propyl)piperidin-4-amine], the IC50 against ENPP3 is greater than 20 µM; on human ENPP1 it was 0.1 to 1 µM.

As for `Cc1csc2c(N3CCC(NCCCc4ccccc4)CC3)ncnc12` [Example 3.27, 1-(7-Methylthieno[3,2-d]pyrimidin-4-yl)-N-(3-phenylpropyl)piperidin-4-amine], the IC50 against ENPP3 is greater than 20 µM; on human ENPP1, 0.1 to 1 µM.

As for `Cc1csc2c(N3CCC(NCCCc4ccc(Cl)cc4)CC3)ncnc12` [Example 3.28, N-(3-(4-Chlorophenyl)propyl)-1-(7-methylthieno[3,2-d]pyrimidin-4-yl)piperidin-4-amine], the results for the IC50 on ENPP3 and on human ENPP1 were greater than 20 µM and less than 0.1 µM, respectively.

As for `Cc1csc2c(N3CCC(NCCCc4ccncc4)C3)ncnc12` (stereo not drawn) [Example 3.29, 1-(7-Methylthieno[3,2-d]pyrimidin-4-yl)-N-(3-(pyridin-4-yl)propyl)pyrrolidin-3-amine], the values for the IC50 at ENPP3 and against human ENPP1 were greater than 20 µM and 0.1 to 1 µM, respectively.

Take `Cc1cc(CCCNC2CCN(c3ncnc4c(C)csc34)CC2)ccn1` [Example 3.30, N-(3-(2-Methylpyridin-4-yl)propyl)-1-(7-methylthieno[3,2-d]pyrimidin-4-yl)piperidin-4-amine]: the 50% inhibitory concentration (IC50) against ENPP3 is greater than 20 µM; on human ENPP1, 0.1 to 1 µM.

In the case of `COc1ccc(CCC(=O)NC2CCN(c3ncnc4c(C)csc34)CC2)cc1` [Example 3.31, 3-(4-Methoxyphenyl)-N-(1-(7-methylthieno[3,2-d]pyrimidin-4-yl)piperidin-4-yl)propanamide], the IC50 on ENPP3 and against human ENPP1 was greater than 20 µM in each case.

As to `COc1ccc(CCCNC2CCN(c3ncnc4c(C)csc34)CC2)cc1` [Example 3.32, N-(3-(4-Methoxyphenyl)propyl)-1-(7-methylthieno[3,2-d]pyrimidin-4-yl)piperidin-4-amine], the IC50 on ENPP3 is greater than 20 µM; against human ENPP1 it was 0.1 to 1 µM.

With `Cc1csc2c(N3CCC(NCCCc4ccccc4F)CC3)ncnc12` [Example 3.33, N-(3-(2-Fluorophenyl)propyl)-1-(7-methylthieno[3,2-d]pyrimidin-4-yl)piperidin-4-amine], the IC50 is greater than 20 µM against ENPP3 and 0.1 to 1 µM on human ENPP1.

As to `Cc1cnccc1CCC(=O)NC1CCN(c2ncnc3c(C)csc23)CC1` [Example 3.34, 3-(3-Methylpyridin-4-yl)-N-(1-(7-methylthieno[3,2-d]pyrimidin-4-yl)piperidin-4-yl)propanamide], the IC50 against ENPP3 and against human ENPP1 was greater than 20 µM in each case.

Take `Cc1cnccc1CCCNC1CCN(c2ncnc3c(C)csc23)CC1` [Example 3.35, N-(3-(3-Methylpyridin-4-yl)propyl)-1-(7-methylthieno[3,2-d]pyrimidin-4-yl)piperidin-4-amine]: the IC50 is greater than 20 µM against ENPP3 and 0.1 to 1 µM on human ENPP1.

For the compound `Cc1csc2c(N3CCC(NC(=O)CCc4ccnc(F)c4)CC3)ncnc12` [Example 3.36, 3-(2-Fluoropyridin-4-yl)-N-(1-(7-methylthieno[3,2-d]pyrimidin-4-yl)piperidin-4-yl)propanamide], the IC50 against ENPP3 is greater than 20 µM; against human ENPP1, 1 to 20 µM.

Consider `Cc1csc2c(N3CCC(NCCCc4ccnc(F)c4)CC3)ncnc12` [Example 3.37, N-(3-(2-Fluoropyridin-4-yl)propyl)-1-(7-methylthieno[3,2-d]pyrimidin-4-yl)piperidin-4-amine], for which the IC50 is greater than 20 µM on ENPP3 and 0.1 to 1 µM against human ENPP1.

For orientation: IC50 means the concentration that gives 50% inhibition. Read a low IC50 as inhibition by little substance.
